# Measured values taken from US9855273B2, “Combination therapy for MDS” (priority 2013, dated 2018).
# Like-named read-outs stand apart in the source and are kept apart here.
# Key:
# MDS patient marrow cells [1] = conditions: 48 hrs
# Experimental: (§1) Annexin V analysis was carried out as previously described (Fang et al., 2012). Cells were stained after either drug treatment or lentiviral transduction with Annexin V (eBioscience) and propidium iodide (Sigma-Aldrich), or 7AAD (eBioscience) according to the manufacturer's instructions. Analysis was performed using BD FACSCalibur or FACSCanto flow cytometer with either CellQuest or Diva software. For in vitro growth assays, cell expansion in liquid culture was determined based on trypan blue exclusion using an automated cell counter (BioRad TC10). For experiments beyond 48 hrs, cells were replenished with fresh media and drug every second day. For primary patient marrow cells, cell were treated with a single inhibitor dose and counted 24 and 48 hours later. NF-κB DNA-binding assay Nuclear lysates were isolated from treated cells as previously described (Starczynowski et al., 2011). NF-κB (p65) DNA binding was measured using an ELISA-based assay according to the manufacturer's recommendations (KHO0371, Invitrogen)
# NF-κB (RelA/p65) = conditions: MDS/AML cell lines (THP1, HL60), 10 μM, 24 hrs
# Experimental: as §1
# [2] = tested on: MDS/AML cell lines (MDSL, TF1, THP1, HL60); assay: Viable cell growth (trypan blue exclusion) of MDS/AML cell lines; type: cell-based, human
# Experimental: Acute myeloid leukemic cell lines, HL60, THP1, and TF-1 were purchased from the American Type Culture Collection. MOLM13 were purchased from AddexBio. The myelodysplastic cell line, MDS-L, was provided by Dr. Kaoru Tohyama (Kawasaki Medical School, Okayama, Japan) (Matsuoka et al., 2010). […] Additionally, both the MDSL and TF-1 cell lines were cultured in the presence of 10 ng/mL human recombinant IL-3 (Stemcell Technologies).
# primary AML marrow cells = assay: Growth/viability of primary AML marrow cells; type: cell-based, human
# Text: AML patient samples were acquired following informed consent and under the direction of IRB approved protocols.
# MDS/AML cell lines = assay: AnnexinV apoptosis staining of MDS/AML cell lines; type: cell-based, human; conditions: all cell lines, 48 hrs of treatment, 10 μM
# AML patient cells = assay: Colony formation in methylcellulose, primary AML cells; type: cell-based, human
# Text: (§4) We evaluated marrow cells from 7 MDS and 3 AML patient samples with various cytogenetic features to determine whether IRAK1 inhibition is also effective in primary patient cells (Table S1). […] Since MDS and AML stem/progenitor cells are clonal and the disease-propagating cells form colonies in methylcellulose, we also evaluated the effects of IRAK-Inh on colony formation.
# MDSL cells [3] = assay: MDSL xenograft, cells pre-treated in vitro, NSGS mice; type: in vivo
# Experimental: (§2) Xenograftment of NOD/SCID-IL2Rγ(NSG) and NSG-hSCF/hGM-CSF/hIL3 (NSGS) MDSL cells (1×10^6-5×10^6) were injected into the tail veins of 8-week old sublethally irradiated ([…]) NSG or NSG animals engineered to express human SCF, GM-CSF, and IL3 (NSGS) as previously described (Wunderlich et al., 2010). Mice were monitored by performing complete blood counts (Drew Hemavet 950FS). Following red cell lysis, human MDSL cells were identified by hCD45-FITC staining. In vivo delivery of IRAK-Inh approach is adapted from previous reports (Yang et al., 2011): IRAK-Inh was diluted in DMSO (5 mM) and further dissolved in sterile phosphate buffered saline (PBS; pH 7.2). Animals were injected i.p. with 2.12 mg/kg IRAK-Inh 3× weekly.
# (§3) To determine whether IRAK-Inh can delay human MDS-like disease in vivo, MDSL were pre-treated with IRAK-Inh (10 μM) for 24 hrs in vitro and subsequently injected intravenously (i.v.) into NSG (5×10^6 cells) and NSGS (1×10^6 cells) recipient mice (FIG. 4A). This approach permitted us to evaluate the cell autonomous effect of IRAK-Inh on MDS cell viability and engraftment without altering endogenous IRAK1 function in the mouse.
# Moreover, we investigated whether combined IRAK1 and BCL2 inhibition could delay human MDS-like disease in vivo. MDSL cells were treated with IRAK-Inh (10 μM) and/or ABT-263 (0.1 μM) for 48 hrs in vitro and subsequently injected i.v. into NSGS mice (FIG. 4A).
# MDSL cells [4] = assay: MDSL xenograft, in vivo i.p. delivery after engraftment, NSG mice
# Experimental: as §2
# as §3, with “mouse. […] In addition, the human MDSL graft was reduced from 8% to 2% (FIG. 4D). Morphological assessment confirmed normal RBC and reduced MDS grafts in the peripheral blood and marrow of mice transplanted with IRAK-Inh-treated MDSL cells (FIG. 4E). […]” for “mouse.”
# IRAK1 = IRAK1 (Homo sapiens, UniProt P51617); conditions: Powers et al., 2006, cited from earlier work
# IRAK4 = IRAK4 (Homo sapiens, UniProt Q9NWZ3); conditions: read-out: IC50 IRAK4; Powers et al., 2006; cited from earlier work
# Lck = Lck (Homo sapiens, UniProt P06239); conditions: read-out: IC50 Lck; Powers et al., 2006; cited from earlier work
# MDS patient marrow cells [5] = assay: Colony formation in methylcellulose, primary MDS marrow cells; conditions: continuously treated or briefly exposed
# Text: as §4
# Sequence of IRAK1 (P51617 whole entry, species assumed): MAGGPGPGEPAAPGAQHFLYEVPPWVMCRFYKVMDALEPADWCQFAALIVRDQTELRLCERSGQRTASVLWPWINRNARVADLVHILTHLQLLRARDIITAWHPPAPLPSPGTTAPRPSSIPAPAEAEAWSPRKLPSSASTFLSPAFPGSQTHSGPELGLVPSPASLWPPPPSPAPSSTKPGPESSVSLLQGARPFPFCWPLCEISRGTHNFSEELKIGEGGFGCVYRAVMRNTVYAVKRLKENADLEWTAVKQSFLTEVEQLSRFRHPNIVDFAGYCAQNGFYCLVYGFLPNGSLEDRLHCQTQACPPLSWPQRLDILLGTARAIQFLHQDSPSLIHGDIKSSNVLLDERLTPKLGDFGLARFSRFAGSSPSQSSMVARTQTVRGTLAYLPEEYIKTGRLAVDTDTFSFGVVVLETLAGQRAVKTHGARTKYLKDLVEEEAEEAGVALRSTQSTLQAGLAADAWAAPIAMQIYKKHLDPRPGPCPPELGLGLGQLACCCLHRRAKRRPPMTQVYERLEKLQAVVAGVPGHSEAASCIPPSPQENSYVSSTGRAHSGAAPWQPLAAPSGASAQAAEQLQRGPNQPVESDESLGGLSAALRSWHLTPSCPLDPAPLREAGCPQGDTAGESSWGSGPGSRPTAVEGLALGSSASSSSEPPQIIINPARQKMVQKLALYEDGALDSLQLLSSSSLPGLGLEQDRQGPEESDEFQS
# Sequence of Lck (P06239 whole entry, species assumed): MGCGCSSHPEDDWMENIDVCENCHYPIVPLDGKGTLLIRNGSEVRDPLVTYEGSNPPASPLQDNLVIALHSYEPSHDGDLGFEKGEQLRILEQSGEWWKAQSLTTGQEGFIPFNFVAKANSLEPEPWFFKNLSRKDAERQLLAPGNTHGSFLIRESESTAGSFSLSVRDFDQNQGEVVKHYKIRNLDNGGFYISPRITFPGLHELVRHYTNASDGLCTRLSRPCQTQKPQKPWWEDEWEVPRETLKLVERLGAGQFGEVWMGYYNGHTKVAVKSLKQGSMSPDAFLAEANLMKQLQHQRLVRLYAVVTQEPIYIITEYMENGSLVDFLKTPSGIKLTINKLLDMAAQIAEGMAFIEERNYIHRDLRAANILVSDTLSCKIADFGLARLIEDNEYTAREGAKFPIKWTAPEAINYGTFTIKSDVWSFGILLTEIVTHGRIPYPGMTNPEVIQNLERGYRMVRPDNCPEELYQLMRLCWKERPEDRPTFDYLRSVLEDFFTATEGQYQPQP
# Sequence of IRAK4 (Q9NWZ3 whole entry, species assumed): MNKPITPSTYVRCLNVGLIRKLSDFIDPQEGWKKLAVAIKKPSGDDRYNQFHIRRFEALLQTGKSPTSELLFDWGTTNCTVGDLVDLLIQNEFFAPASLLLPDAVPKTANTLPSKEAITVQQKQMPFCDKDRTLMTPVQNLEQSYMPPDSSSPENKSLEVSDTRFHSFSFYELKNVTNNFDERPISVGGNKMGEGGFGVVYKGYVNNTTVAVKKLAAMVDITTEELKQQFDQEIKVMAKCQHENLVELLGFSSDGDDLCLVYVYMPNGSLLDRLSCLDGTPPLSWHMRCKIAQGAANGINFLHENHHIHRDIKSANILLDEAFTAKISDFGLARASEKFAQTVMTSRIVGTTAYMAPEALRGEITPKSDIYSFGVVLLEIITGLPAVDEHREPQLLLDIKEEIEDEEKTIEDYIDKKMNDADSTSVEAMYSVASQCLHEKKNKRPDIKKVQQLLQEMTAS
structure (smiles),measurement,setting,value
"O=C(Nc1nc2ccccc2n1CCN1CCOCC1)c1cccc([N+](=O)[O-])c1 [IRAK-Inh, N-(2-morpholinylethyl)-2-(3-nitrobenzoylamido)-benzimidazole]",expansion of MDS marrow cells,MDS patient marrow cells [1],failed to expand
same,apoptotic cells in MDS marrow cells,MDS patient marrow cells [1]; except for MDS-07,increased levels of apoptotic cells
same,DNA bound and active RelA/p65 decreased by,NF-κB (RelA/p65),~50%
same,viability of HL60 cells,[2]; HL60,only modestly reduced
same,sensitivity of HL60 cells,"[2]; HL60, IRAK-Inh 10 μM, ABT-263 0.1 μM, alone or combined",refractory
same,MDS/AML cell line growth and survival,"[2]; IRAK-Inh 10 μM, ABT-263 0.1 μM, alone or co-treatment",modest effects
same,cell proliferation,"[2]; MDSL, TF1 and THP1, 0-10 μM, up to 6 days",dose-dependent impairment
same,growth of AML marrow cells,primary AML marrow cells,continued to grow similar to control-treated cells
same,viability of primary AML marrow cells,primary AML marrow cells,only modestly reduced
same,apoptosis,MDS/AML cell lines,modest increase in apoptosis
same,AML progenitor function,AML patient cells,did not affect
same,leukemic progenitor function of AML patient cells,"AML patient cells; IRAK-Inh 10 μM, ABT-263 0.1 μM",not sensitive
same,median survival,"MDSL cells [3]; MDSL pre-treated 10 μM 24 hrs, 1×10^6 cells i.v., control 29 days",38 days
same,median survival,"MDSL cells [3]; MDSL treated in vitro with IRAK-Inh 10 μM and/or ABT-263 0.1 μM, DMSO 28 days",~35 days
same,"red blood cell numbers, hemoglobin, hematocrit and platelets",MDSL cells [3]; mice transplanted with pre-treated MDSL cells,significantly improved
same,HCT and Hb levels,MDSL cells [4]; 2.12 mg/kg i.p. 3×/week from day 6,maintained HCT and Hb levels
same,human graft in peripheral blood (hCD45),MDSL cells [4]; within ~7 days of receiving 2.12 mg/kg i.p. 3×/week,reduced human graft in the peripheral blood
same,IC50,"IRAK1; read-out: IC50 IRAK1, FIG. 9A legend",300 nM
same,IC50,"IRAK1; read-out: IC50 IRAK1 kinase activity, Wang et al., 2009",750 nM
same,IC50,IRAK4,200 nM
same,IC50,Lck,> 10000 nM
same,colony formation of MDS marrow cells,MDS patient marrow cells [5],significantly fewer colonies
